pIC50: −log10 of the molar value. Where “and” joins values, the source holds several entries; their conditions need not be identical. Equal values may be shown once.
Target: T1, CETP (Homo sapiens, UniProt P11597)
T1 construct: from tissue; host or cells: human plasma from normal volunteers
T1 sequence (P11597 18-493): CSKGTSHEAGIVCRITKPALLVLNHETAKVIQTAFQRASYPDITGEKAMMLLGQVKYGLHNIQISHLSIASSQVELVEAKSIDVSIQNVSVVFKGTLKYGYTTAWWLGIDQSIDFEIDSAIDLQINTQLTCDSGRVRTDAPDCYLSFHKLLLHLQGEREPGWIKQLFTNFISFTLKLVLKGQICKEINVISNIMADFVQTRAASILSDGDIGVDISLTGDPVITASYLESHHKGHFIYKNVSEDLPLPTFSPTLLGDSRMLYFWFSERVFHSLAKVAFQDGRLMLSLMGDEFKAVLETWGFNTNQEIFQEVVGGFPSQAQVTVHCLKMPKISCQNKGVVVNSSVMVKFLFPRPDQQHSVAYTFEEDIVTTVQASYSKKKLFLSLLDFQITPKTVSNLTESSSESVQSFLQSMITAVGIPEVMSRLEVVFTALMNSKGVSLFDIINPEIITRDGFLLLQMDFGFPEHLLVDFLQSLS
Experiment: CETP in vitro assay ([3H]CE-HDL transfer, Amersham kit TRKQ7005; modified protocol in human plasma)
Assay type: biochemical
Conditions: multiple values = multiple measurements; for % Inhibition @ 1 μM / inhibition at 1 µM: 1 μM compound
Experimental: The CETP inhibitory activity of the compounds was determined using a commercially available kit from Amersham Biosciences (Catalog #TRKQ7005).
For the measurement of inhibitory activity in human plasma, a modified protocol (Connolly, D. T. et al., Biochemistry, 39 13870-13879, 2000) was used. Briefly, 80 μl of human plasma (obtained from normal volunteers), approximately 25 μg/ml (200) of [^3H]CE-HDL (Amersham Biosciences from kit TRKQ7005) and 1 μl of compound dissolved in DMSO was incubated for at least 4 hrs at 37° C. and non-specific transfer was determined by incubating a corresponding plate at 4° C. (blank). After the incubation period, 100 of a solution of 1% Dextralip 50/0.5M MgCl2, pH 7.4 was added, vortexed and incubated at room temperature for 10 min. The plate was then centrifuged for 30 min at 10° C. at 3000 rpm in a Sorvall RT6000B centrifuge. Fifty microliters of the supernatant was transferred to a Picoplate (Packard) containing 100 μl of Microscint 40 (Perkin Elmer) and mixed for 30 min using a plate mixer. The radioactivity was counted using a TopCount (Perkin Elmer) and the % control was determined in the samples using the following formula: % transfer relative to vehicle controls (% control)=[cpm blank-cpm test]/cpm blank/cpm control]×100. IC50s were calculated from plots of the % control versus compound concentration.
A variety of example compounds have been made and tested, with a range of in vitro results. Below, in Table 2, are representative compounds and the corresponding data; in some cases, where multiple IC50's are shown, multiple measurements were taken. Naturally, different compounds in Formula (I), (Ia), (Ib) and (Ic) may have not activities identical to any one compound below.

% Inhibition @ 1 μM (1 µM) | pIC50 | inhibition at 1 µM | % Inhibition @ 1 μM | SMILES
59% and 87% | 6.87 and 6.70 |  |  | O[C@@H](CN1c2cccc(-c3cccc(OC(F)(F)F)c3)c2SC[C@@H]1c1cccc(OC(F)(F)C(F)F)c1)C(F)(F)F [Compound 107]
82% | 6.66 | 80% |  | O[C@H](CN1c2cccc(-c3cc(F)c(F)c(F)c3)c2OC[C@@H]1c1cccc(OC(F)(F)C(F)F)c1)C(F)(F)F [Compound 77, 4H-1,4-Benzoxazine-4-ethanol, 2,3-dihydro-3-[3-(1,1,2,2-tetrafluoroethoxy)phenyl]-8-[3,4,5-trifluoro-phenyl]-α-(trifluoromethyl)-, (3S,αR)—]
64% and 66% | 6.98 and 6.96 |  |  | OC(CN1c2cccc(-c3cccc(OC(F)(F)F)c3)c2OCC1c1cccc(OC(F)(F)F)c1)C(F)(F)F (stereo not shown) [Compound 7, 3-[3,8-Bis-(3-trifluoromethoxy-phenyl)-2,3-dihydro-benzo[1,4]oxazin-4-yl]-1,1,1-trifluoro-propan-2-ol]
 |  | 23% |  | O[C@H](CN1c2cccc(-c3cccc(OC(F)(F)F)c3)c2OC[C@H]1c1cccc(OC(F)(F)C(F)F)c1)C(F)(F)F [Compound 5, 4H-1,4-Benzoxazine-4-ethanol, 2,3-dihydro-3-[3-(1,1,2,2-tetrafluoroethoxy)phenyl]-8-[3-(trifluoromethoxy)phenyl]-α-(trifluoromethyl)-, (3R,αR)—]
9% |  |  |  | CC(C)(C)C(=O)CC1COc2c(-c3cccc(OC(F)(F)F)c3)cccc2N1CC(O)C(F)(F)F (stereo not shown) [Compound 56, 3,3-Dimethyl-1-[4-(3,3,3-trifluoro-2-hydroxy-propyl)-8-(3-trifluoromethoxy-phenyl)-3,4-dihydro-2H-benzo[1,4]oxazin-3-yl]-butan-2-one]
 |  | 8% |  | COC(=O)N(C)CCN1c2cccc(-c3cccc(OC(F)(F)F)c3)c2OCC1c1cccc(OC(F)(F)C(F)F)c1 (stereo not shown) [Compound 42, Methyl-{2-[3-[3-(1,1,2,2-tetrafluoro-ethoxy)-phenyl]-8-(3-trifluoromethoxy-phenyl)-2,3-dihydro-benzo[1,4]oxazin-4-yl]-ethyl}-carbamic acid methyl ester]
 |  | 0% |  | COCCCC1COc2c(-c3cccc(OC(F)(F)F)c3)cccc2N1CC(O)C(F)(F)F (stereo not shown) [Compound 55]
 |  | 0% |  | CN1c2cccc(-c3cccc(OC(F)(F)F)c3)c2OCC1c1cccc(OC(F)(F)C(F)F)c1 (stereo not shown) [Compound 32, 4-Methyl-3-[3-(1,1,2,2-tetrafluoro-ethoxy)-phenyl]-8-(3-trifluoromethoxy-phenyl)-3,4-dihydro-2H-benzo[1,4]oxazine]
 |  |  | 17% | OC(CN1c2cccc(-c3cccc(OC(F)(F)F)c3)c2OCC1c1ccco1)C(F)(F)F (stereo not shown) [Compound 90, 1,1,1-Trifluoro-3-[3-furan-2-yl-8-(3-trifluoromethoxy-phenyl)-2,3-dihydro-benzo[1,4]oxazin-4-yl]-propan-2-ol]
21% |  |  |  | OC(CN1c2cccc(-c3cccc(OC(F)(F)F)c3)c2OCC1c1cccc(OC(F)(F)F)c1)C(F)(F)F (stereo not shown) [Compound 8, 3-[3,8-Bis-(3-trifluoromethoxy-phenyl)-2,3-dihydro-benzo[1,4]oxazin-4-yl]-1,1,1-trifluoro-propan-2-ol]
 |  | 23% |  | O[C@H](CN1c2cccc(-c3cccc(OC(F)(F)F)c3)c2OC[C@@H]1c1cccc(OC(F)(F)F)c1)C(F)(F)F [Compound 10, 4H-1,4-Benzoxazine-4-ethanol, 2,3-dihydro-3,8-bis[3-(trifluoromethoxy)phenyl]-α-(trifluoromethyl)-, (3S,αR)—]
39% | 6.72 | 38% |  | CCCN1c2cccc(-c3cccc(OC(F)(F)F)c3)c2OCC1c1cccc(OC(F)(F)C(F)F)c1 (stereo not shown) [Compound 34, 4-Propyl-3-[3-(1,1,2,2-tetrafluoro-ethoxy)-phenyl]-8-(3-trifluoromethoxy-phenyl)-3,4-dihydro-2H-benzo[1,4]oxazine]
 |  | 28% |  | C[C@H](O)CN1c2cccc(-c3cccc(OC(F)(F)F)c3)c2OC[C@@H]1c1cccc(OC(F)(F)C(F)F)c1 [Compound 36, 4H-1,4-Benzoxazine-4-ethanol, 2,3-dihydro-α-methyl-3-[3-(1,1,2,2-tetrafluoroethoxy)phenyl]-8-[3-(trifluoromethoxy)phenyl]-, (3S,αS)—]
0% |  |  |  | OC(CN1c2cccc(-c3cccc(OC(F)(F)F)c3)c2OCC1c1cccs1)C(F)(F)F (stereo not shown) [Compound 104, 1,1,1-Trifluoro-3-[3-thiophen-2-yl-8-(3-trifluoromethoxy-phenyl)-2,3-dihydro-benzo[1,4]oxazin-4-yl]-propan-2-ol]
 | 7.30 | 100% |  | O[C@@H](CN1c2cccc(-c3cc(F)cc(F)c3)c2OC[C@@H]1c1cccc(OC(F)(F)C(F)F)c1)C(F)(F)F [Compound 72, 4H-1,4-Benzoxazine-4-ethanol, 8-(3,5-difluorophenyl)-2,3-dihydro-3-[3-(1,1,2,2-tetrafluoroethoxy)phenyl]-α-(trifluoromethyl)-, (3S,αS)—]
86% and 76% | 6.00 |  |  | OC(CN1c2cccc(-c3cc(F)cc(F)c3)c2OCC1c1cccc(OC(F)(F)C(F)F)c1)C(F)(F)F (single isomer, unassigned) [Compound 65, 3-{8-(3,5-Difluoro-phenyl)-3-[3-(1,1,2,2-tetrafluoro-ethoxy)-phenyl]-2,3-dihydro-benzo[1,4]oxazin-4-yl}-1,1,1-trifluoro-propan-2-ol]
 | 6.71 | 100% |  | O[C@@H](CN1c2cccc(-c3cc(F)cc(F)c3)c2OC[C@@H]1c1cccc(OC(F)(F)F)c1)C(F)(F)F [Compound 80, 4H-1,4-Benzoxazine-4-ethanol, 2,3-dihydro-3-[3-(trifluoromethoxy)phenyl]-8-[3,5-(difluoro)phenyl]-α-(trifluoromethyl)-, (3S,αS)—]
96% | 7.28 and 7.42 |  |  | OC(CN1c2cccc(-c3cccc(OC(F)(F)F)c3)c2OCC1c1cccc(OC(F)(F)C(F)F)c1)C(F)(F)F (single isomer, unassigned) [Compound 1, 1,1,1-Trifluoro-3-[3-[3-(1,1,2,2-tetrafluoro-ethoxy)-phenyl]-8-(3-trifluoromethoxy-phenyl)-2,3-dihydro-benzo[1,4]oxazin-4-yl]-propan-2-ol]
 |  | 2% |  | CCOC(=O)N1c2cccc(-c3cccc(OC(F)(F)F)c3)c2OCC1c1cccc(OC(F)(F)C(F)F)c1 (stereo not shown) [Compound 21, 3-[3-(1,1,2,2-Tetrafluoro-ethoxy)-phenyl]-8-(3-trifluoromethoxy-phenyl)-2,3-dihydro-benzo[1,4]oxazine-4-carboxylic acid ethyl ester]
121% and 101% and 119% | 7.00 and 6.93 |  |  | OC(CN1c2cccc(-c3cc(F)cc(F)c3)c2OCC1c1cccc(OC(F)(F)C(F)F)c1)C(F)(F)F (single isomer, unassigned) [Compound 64, 3-{8-(3,5-Difluoro-phenyl)-3-[3-(1,1,2,2-tetrafluoro-ethoxy)-phenyl]-2,3-dihydro-benzo[1,4]oxazin-4-yl}-1,1,1-trifluoro-propan-2-ol]
60% and 96% | 6.30 |  |  | CCc1ccc(C2COc3c(-c4cccc(OC(F)(F)F)c4)cccc3N2CC(O)C(F)(F)F)s1 (stereo not shown) [Compound 58, 3-[3-(5-Ethyl-thiophen-2-yl)-8-(3-trifluoromethoxy-phenyl)-2,3-dihydro-benzo[1,4]oxazin-4-yl]-1,1,1-trifluoro-propan-2-ol]
 |  | 29% |  | O[C@H](CN1c2cccc(-c3cc(F)c(F)c(F)c3)c2OC[C@@H]1c1cccc(OC(F)(F)F)c1)C(F)(F)F [Compound 83, 4H-1,4-Benzoxazine-4-ethanol, 2,3-dihydro-3-[3-(trifluoromethoxy)phenyl]-8-[3,4,5-(trifluoro)phenyl]-α-(trifluoromethyl)-, (3S,αR)—]
87% | 7.00 and 6.80 | 84% |  | CC(C)C(O)CN1c2cccc(-c3cccc(OC(F)(F)F)c3)c2OCC1c1cccc(OC(F)(F)C(F)F)c1 (stereo not shown) [Compound 84, 3-Methyl-1-[3-[3-(1,1,2,2-tetrafluoro-ethoxy)-phenyl]-8-(3-trifluoromethoxy-phenyl)-2,3-dihydro-benzo[1,4]oxazin-4-yl]-butan-2-ol]
